Results from patent US12630547B2, “RAS protein degraders, pharmaceutical compositions thereof, and their therapeutic applications” (BioTheryX, Inc., priority 2019, dated 2026).

What was measured:
Format in all cases: cell-based
MOLM-13 cells = experiment: Cell viability assay (CELLTITER-GLO), MOLM-13 cells; settings: Homo sapiens, MOLM-13, 72 h; Table 2; compound at 10 μM, 3 days; read-out: Effect on MOLM-13 cell viability (% DMSO)
Procedure: (§1) MOLM-13 cells, MV-4-11 cells, H23, and H358 cells were independently cultured in RPMI 1640 media supplemented with 10% fetal bovine serum, streptomycin and penicillin. The cells were plated in white walled 96-well plates at 4,000 cells/well. The cells were incubated in DMSO (control) or a compound for 3 days at 37° C. under 5% CO2. A CELLTITER-GLO® reagent (100 μL) was then added to each well. After a 10 min incubation with shaking, luminescence was measured using an ENVISION® multimode plate reader.
In Tables 1 and 2, each compound was tested at 10 μM; and in Table 3, each compound was tested at 1 μM. In Tables 1 to 3, the cell viability values as % DMSO are reported as “A,” “B,” “C,” or “D;” where “A” represents a % viability value of less than 10%; “B” represents a % viability value of no less than 10% and less than 25%; “C” represents a % viability value of no less than 25% and less than 50%; and “D” represents a % viability value of no less than 50%. Compound A is […]

H23 cells = experiment: Cell viability assay (CELLTITER-GLO), H23 cells; settings: Table 4; 3 days
Procedure: as §1
(§2) IC50 values are summarized in Table 4, where “A” represents an IC50 value of no greater than 1 μM, “B” represents an IC50 value of greater than 1 μM and no greater than 5 μM, “C” represents an IC50 value of greater than 5 μM and no greater than 10 μM, and “D” represents an IC50 value of greater than 10 μM.

H358 cells = experiment: Cell viability assay (CELLTITER-GLO), H358 cells; settings: Table 4; 3 days
Procedure: as §1
In Tables 1 and 2, each compound was tested at 10 μM; and in Table 3, each compound was tested at 1 μM. In Tables 1 to 3, the cell viability values as % DMSO are reported as “A,” “B,” “C,” or “D;” where “A” represents a % viability value of less than 10%; “B” represents a % viability value of no less than 10% and less than 25%; “C” represents a % viability value of no less than 25% and less than 50%; and “D” represents a % viability value of no less than 50%. Compound A is
as §2

Compound | Inhibition of H358 cells, IC50 (class) (H358 cells) | viability at 10 µM (MOLM-13 cells) [%] | Inhibition of H23 cells, IC50 (class) (H23 cells)
CCC(=O)N1CCN(c2ncnc3c(F)c(-c4c(F)cccc4OCCCCCCCCCN4CCC(c5cc(F)cc6c5CN(C5CCC(=O)NC5=O)C6=O)CC4)c(Cl)cc23)CC1 (stereo not drawn) [Compound 61, 3-(4-(1-(9-(2-(6-Chloro-8-fluoro-4-(4-propionylpiperazin-1-yl)quinazolin-7-yl)-3-fluorophenoxy)nonyl)piperidin-4-yl)-6-fluoro-1-oxoisoindolin-2-yl)piperidine-2,6-dione] | B′ | < 10 | B′
CCC(=O)N1CCN(c2ncnc3c(F)c(-c4c(F)cccc4OCCOCCOCCOCCNc4cccc5c4C(=O)N(C4CCC(=O)NC4=O)C5=O)c(Cl)cc23)CC1 (stereo not drawn) [Compound 42, 4-((2-(2-(2-(2-(2-(6-Chloro-8-fluoro-4-(4-propionylpiperazin-1-yl)quinazolin-7-yl)-3-fluorophenoxy)ethoxy)ethoxy)ethoxy)ethyl)amino)-2-(2,6-dioxopiperidin-3-yl)isoindoline-1,3-dione] | D′ | ≥ 50 | D′
O=C1CCC(N2Cc3c(cc(F)cc3C3CCN(CCCCCCCOc4cccc(F)c4-c4c(Cl)cc5c(N6CCN(C(=O)C7CCCC7)CC6)ncnc5c4F)CC3)C2=O)C(=O)N1 (stereo not drawn) [Compound 51, 3-(4-(1-(7-(2-(6-Chloro-4-(4-(cyclopentanecarbonyl)piperazin-1-yl)-8-fluoroquinazolin-7-yl)-3-fluorophenoxy)heptyl)piperidin-4-yl)-6-fluoro-1-oxoisoindolin-2-yl)piperidine-2,6-dione] | B′ | – | B′
O=C1CCC(N2Cc3c(cc(F)cc3C3CCN(CCCCCCCOc4cccc(F)c4-c4c(Cl)cc5c(N6CCN(C(=O)CC7CC7)CC6)ncnc5c4F)CC3)C2=O)C(=O)N1 (stereo not drawn) [Compound 53, 3-(4-(1-(7-(2-(6-Chloro-4-(4-(2-cyclopropylacetyl)piperazin-1-yl)-8-fluoroquinazolin-7-yl)-3-fluorophenoxy)heptyl)piperidin-4-yl)-6-fluoro-1-oxoisoindolin-2-yl)piperidine-2,6-dione] | B′ | – | B′
C=CC(=O)N1CCN(c2ncnc3c(F)c(-c4c(F)cccc4OCCCCCCC(=O)N[C@H](C(=O)N4C[C@H](O)C[C@H]4C(=O)NCc4ccc(-c5scnc5C)cc4)C(C)(C)C)c(Cl)cc23)CC1 [Compound 50, (2S,4R)-1-((2S)-2-(7-(2-(4-(4-Acryloylpiperazin-1-yl)-6-chloro-8-fluoroquinazolin-7-yl)-3-fluorophenoxy)heptanamido)-3,3-dimethylbutanoyl)-4-hydroxy-N-(4-(4-methylthiazol-5-yl)benzyl)pyrrolidine-2-carboxamide] | A′ | – | B′
CCC(=O)N1CCN(c2ncnc3c(Cl)c(-c4c(F)cccc4OCCCCCCCCN4CCC(c5cc(F)cc6c5CN(C5CCC(=O)NC5=O)C6=O)CC4)c(F)cc23)CC1 [Compound 49, 3-(4-(1-(8-((R)-2-(8-Chloro-6-fluoro-4-(4-propionylpiperazin-1-yl)quinazolin-7-yl)-3-fluorophenoxy)octyl)piperidin-4-yl)-6-fluoro-1-oxoisoindolin-2-yl)piperidine-2,6-dione] | B′ | – | B′
C=CC(=O)N1CCN(c2ncnc3c(F)c(-c4cc(OCCOCCOCCC(=O)NCCNc5cccc6c5CN(C5CCC(=O)NC5=O)C6=O)ccc4F)c(Cl)cc23)CC1 [Compound 39, 3-(2-(2-((R)-3-(4-(4-Acryloylpiperazin-1-yl)-6-chloro-8-fluoroquinazolin-7-yl)-4-fluorophenoxy)ethoxy)ethoxy)-N-(2-((2-(2,6-dioxopiperidin-3-yl)-1-oxoisoindolin-4-yl)amino)ethyl)propanamide] | D′ | – | D′
C=CC(=O)N1CCN(c2nc(OCCOCCOCCOCCNc3cccc4c3C(=O)N(C3CCC(=O)NC3=O)C4=O)nc3c2CCN(c2cccc4ccccc24)C3)C[C@H]1C (stereo partly drawn) [Compound 47, 4-((2-(2-(2-(2-((4-((R)-4-Acryloyl-3-methylpiperazin-1-yl)-7-(naphthalen-1-yl)-5,6,7,8-tetrahydropyrido[3,4-d]pyrimidin-2-yl)oxy)ethoxy)ethoxy)ethoxy)ethyl)amino)-2-(2,6-dioxopiperidin-3-yl)isoindoline-1,3-dione] | C′ | – | B′
CCC(=O)N1CCN(c2nc(OCCOCCOCCOCCNc3cccc4c3C(=O)N(C3CCC(=O)NC3=O)C4=O)nc3c2CCN(c2cccc4ccccc24)C3)C[C@H]1C (stereo partly drawn) [Compound 48, 2-(2,6-Dioxopiperidin-3-yl)-4-((2-(2-(2-(2-((4-((R)-3-methyl-4-propionylpiperazin-1-yl)-7-(naphthalen-1-yl)-5,6,7,8-tetrahydropyrido[3,4-d]pyrimidin-2-yl)oxy)ethoxy)ethoxy)ethoxy)ethyl)-amino)isoindoline-1,3-dione] | D′ | – | D′

Now from value to compound, other results behind:

Inhibition of H358 cells, IC50 (class) (H358 cells) | Compound | viability at 10 µM (MOLM-13 cells) [%] | Inhibition of H23 cells, IC50 (class) (H23 cells)
A′ | C=C(Cl)C(=O)N1CCN(c2ncnc3c(F)c(-c4c(F)cccc4OC[C@H]4CC[C@@H](CN5CCC(c6cc(F)cc7c6CN(C6CCC(=O)NC6=O)C7=O)CC5)CC4)c(Cl)cc23)CC1 (stereo partly drawn) [Compound 127, 3-(4-(1-(((1s,4s)-4-((2-(6-Chloro-4-(4-(2-chloroacryloyl)piperazin-1-yl)-8-fluoro-quinazolin-7-yl)-3-fluorophenoxy)methyl)cyclohexyl)methyl)piperidin-4-yl)-6-fluoro-1-oxoisoindolin-2-yl)piperidine-2,6-dione] | < 10 | A′
B′ | C=C(Cl)C(=O)N1CCN(c2ncnc3c(F)c(-c4c(F)cccc4OCCCCCCCN4CCC(c5cc(F)cc6c5CN(C5CCC(=O)NC5=O)C6=O)C4)c(Cl)cc23)CC1 (stereo not drawn) [Compound 112, 3-(4-(1-(7-(2-(6-Chloro-4-(4-(2-chloroacryloyl)piperazin-1-yl)-8-fluoroquinazolin-7-yl)-3-fluorophenoxy)heptyl)pyrrolidin-3-yl)-6-fluoro-1-oxoisoindolin-2-yl)piperidine-2,6-dione] | < 10 | A′
B′ | CCC(=O)N1CCN(c2ncnc3c(F)c(-c4c(F)cccc4OCCCCCCCN4CCC(c5cc(F)cc6c5CN(C5CCC(=O)NC5=O)C6=O)CC4)c(Cl)cc23)[C@@H](C)C1 (stereo partly drawn) [Compound 85, 3-(4-(1-(7-(2-(6-Chloro-8-fluoro-4-((S)-2-methyl-4-propionylpiperazin-1-yl)quinazolin-7-yl)-3-fluorophenoxy)heptyl)piperidin-4-yl)-6-fluoro-1-oxoisoindolin-2-yl)piperidine-2,6-dione] | < 10 | B′
A′ | C=C(Cl)C(=O)N1CCN(c2ncnc3c(F)c(-c4c(F)cccc4OCCCCCCCN4CCC(c5cc6c(cc5F)C(=O)N(C5CCC(=O)NC5=O)C6)CC4)c(Cl)cc23)CC1 (stereo not drawn) [Compound 107, 3-(5-(1-(7-(2-(6-Chloro-4-(4-(2-chloroacryloyl)piperazin-1-yl)-8-fluoroquinazolin-7-yl)-3-fluorophenoxy)heptyl)piperidin-4-yl)-6-fluoro-1-oxoisoindolin-2-yl)piperidine-2,6-dione] | < 10 | A′
A′ | C=C(Cl)C(=O)N1CCN(c2ncnc3c(F)c(-c4c(F)cccc4OCCCCCCCN4CCCC(c5cc(F)cc6c5CN(C5CCC(=O)NC5=O)C6=O)C4)c(Cl)cc23)CC1 (stereo not drawn) [Compound 106, 3-(4-(1-(7-(2-(6-Chloro-4-(4-(2-chloroacryloyl)piperazin-1-yl)-8-fluoroquinazolin-7-yl)-3-fluorophenoxy)heptyl)piperidin-3-yl)-6-fluoro-1-oxoisoindolin-2-yl)piperidine-2,6-dione] | – | A′
B′ | CCC(=O)N1CCN(c2nc(NCCC(=O)N(C)C)nc3c(F)c(-c4c(F)cccc4OCCCCCCCN4CCC(c5cc(F)cc6c5CN(C5CCC(=O)NC5=O)C6=O)CC4)c(Cl)cc23)CC1 (stereo not drawn) [Compound 86, 3-((6-Chloro-7-(2-((7-(4-(2-(2,6-dioxopiperidin-3-yl)-6-fluoro-1-oxoisoindolin-4-yl)piperidin-1-yl)heptyl)oxy)-6-fluorophenyl)-8-fluoro-4-(4-propionylpiperazin-1-yl)quinazolin-2-yl)amino)-N,N-dimethylpropanamide] | – | B′
